Assay results as given in ChEMBL document CHEMBL1136650, “Glycine alpha-ketoamides as HCV NS3 protease inhibitors” (Bioorg Med Chem Lett, 2003).
Numbered stars: 1 amine (or outer) side, 2 acyl side, 3 side chain; on linkers, the order of the positions; unused ones are H or OH. Square brackets hold non-standard residues; d marks the D form. Peptide text beside a SMILES is read from it. * marks the point of attachment. Abu(ψCOCO) = CC[C@H](N[*:1])C(=O)C(=O)[*:2]; X1 = O=C(C(=O)[*:2])[C@H](CC(F)F)N[*:1]; Pyrazinecarbonyl = O=C(c1cnccn1)*; X2 = CC(C)(N[*:1])C(=O)C(=O)[*:2]; X3 = O=C(C(=O)[*:2])C1(N[*:1])CC1; Cha = N[C@@H](CC1CCCCC1)C(=O)O; Aib = CC(C)(N)C(=O)O; NHAllyl = C=CCN*; Sar = CNCC(=O)O

These compounds were tested against Genome polyprotein (Hepatitis C virus genotype 1a (isolate 1) (HCV), UniProt P26664) (assay: Inhibitory concentration against HCV NS3 protease was determined).
Genome polyprotein, sequence (P26664 1027-1657 limits assumed): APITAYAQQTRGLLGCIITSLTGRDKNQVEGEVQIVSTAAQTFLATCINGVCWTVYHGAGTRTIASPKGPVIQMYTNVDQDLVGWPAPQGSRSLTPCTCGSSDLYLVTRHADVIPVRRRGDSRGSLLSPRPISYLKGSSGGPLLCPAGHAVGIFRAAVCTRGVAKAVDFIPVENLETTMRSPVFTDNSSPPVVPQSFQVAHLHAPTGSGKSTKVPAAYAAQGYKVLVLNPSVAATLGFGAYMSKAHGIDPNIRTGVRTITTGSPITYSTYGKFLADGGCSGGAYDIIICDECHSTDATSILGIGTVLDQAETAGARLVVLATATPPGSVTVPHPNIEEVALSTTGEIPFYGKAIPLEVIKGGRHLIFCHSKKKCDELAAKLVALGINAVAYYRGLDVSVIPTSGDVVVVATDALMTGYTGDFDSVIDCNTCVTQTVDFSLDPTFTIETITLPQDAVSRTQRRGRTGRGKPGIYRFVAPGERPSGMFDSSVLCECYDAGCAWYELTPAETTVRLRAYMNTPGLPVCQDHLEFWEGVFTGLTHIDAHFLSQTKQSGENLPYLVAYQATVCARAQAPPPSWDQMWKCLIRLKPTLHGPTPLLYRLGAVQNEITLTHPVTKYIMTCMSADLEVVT

Compound	IC50
CC[C@H](NC(=O)[C@H](CC1CCCCC1)NC(=O)[C@@H](NC(=O)[C@H](CC(C)C)NC(=O)c1cnccn1)[C@@H](C)CC)C(=O)C(=O)N1CCOCC1	> 60 µM
CCNC(=O)C(=O)[C@H](CC)NC(=O)[C@H](CC1CCCCC1)NC(=O)[C@@H](NC(=O)[C@H](CC(C)C)NC(=O)c1cnccn1)[C@@H](C)CC	1.8 µM
CC[C@H](NC(=O)[C@H](CC1CCCCC1)NC(=O)[C@@H](NC(=O)[C@H](CC(C)C)NC(=O)c1cnccn1)[C@@H](C)CC)C(=O)C(=O)NCc1ccccc1	11 µM
CC[C@H](NC(=O)[C@H](CC1CCCCC1)NC(=O)[C@@H](NC(=O)[C@H](CC(C)C)NC(=O)c1cnccn1)[C@@H](C)CC)C(=O)C(=O)NC1CC1	2.2 µM
CC[C@H](NC(=O)[C@H](CC1CCCCC1)NC(=O)[C@@H](NC(=O)[C@H](CC(C)C)NC(=O)c1cnccn1)[C@@H](C)CC)C(=O)C(=O)N[C@H](C)C(=O)O	> 60 µM
CC[C@H](NC(=O)[C@H](CC1CCCCC1)NC(=O)[C@@H](NC(=O)[C@H](CC(C)C)NC(=O)c1cnccn1)[C@@H](C)CC)C(=O)C(=O)NCCC(=O)O	12 µM
C=CCNC(=O)C(=O)[C@H](CC)NC(=O)[C@H](CC1CCCCC1)NC(=O)[C@@H](NC(=O)[C@H](CC(C)C)NC(=O)c1cnccn1)[C@@H](C)CC	2.7 µM
CC[C@H](NC(=O)[C@H](CC1CCCCC1)NC(=O)[C@@H](NC(=O)[C@H](CC(C)C)NC(=O)c1cnccn1)[C@@H](C)CC)C(=O)C(=O)N1CCCC1	42 µM
CC[C@H](NC(=O)[C@H](CC1CCCCC1)NC(=O)[C@@H](NC(=O)[C@H](CC(C)C)NC(=O)c1cnccn1)[C@@H](C)CC)C(=O)C(=O)N[C@@H](C)C(=O)O	1.3 µM
C#CCNC(=O)C(=O)[C@H](CC)NC(=O)[C@H](CC1CCCCC1)NC(=O)[C@@H](NC(=O)[C@H](CC(C)C)NC(=O)c1cnccn1)[C@@H](C)CC	1.6 µM
C=CCNC(=O)C(=O)[C@H](CC)NC(=O)[C@@H]1CCCN1C(=O)[C@@H](NC(=O)[C@@H](NC(=O)[C@H](CCC(=O)O)NC(=O)[C@@H](N)CC(=O)O)C(C)C)C(C)C (H-DEVVP[Abu(ψCOCO)]-NHAllyl)	0.42 µM
CC[C@H](NC(=O)[C@H](CC1CCCCC1)NC(=O)[C@@H](NC(=O)[C@H](CC(C)C)NC(=O)c1cnccn1)[C@@H](C)CC)C(=O)C(=O)N[C@@H](CC(=O)O)C(=O)O (Pyrazinecarbonyl-LI[Cha][Abu(ψCOCO)]D-OH)	5.3 µM
CC[C@H](NC(=O)[C@H](CC1CCCCC1)NC(=O)[C@@H](NC(=O)[C@H](CC(C)C)NC(=O)c1cnccn1)[C@@H](C)CC)C(=O)C(=O)NCC(N)=O (Pyrazinecarbonyl-LI[Cha][Abu(ψCOCO)]G-NH2)	4.3 µM
CC[C@H](NC(=O)[C@H](CC1CCCCC1)NC(=O)[C@@H](NC(=O)[C@H](CC(C)C)NC(=O)c1cnccn1)[C@@H](C)CC)C(=O)C(=O)NCC(=O)O (Pyrazinecarbonyl-LI[Cha][Abu(ψCOCO)]G-OH)	0.23 µM
CC[C@H](NC(=O)[C@H](CC1CCCCC1)NC(=O)[C@@H](NC(=O)[C@H](CC(C)C)NC(=O)c1cnccn1)[C@@H](C)CC)C(=O)C(=O)NCC(=O)OC (Pyrazinecarbonyl-LI[Cha][Abu(ψCOCO)]G-OMe)	5.8 µM
CC[C@H](NC(=O)[C@H](CC1CCCCC1)NC(=O)[C@@H](NC(=O)[C@H](CC(C)C)NC(=O)c1cnccn1)[C@@H](C)CC)C(=O)C(=O)N[C@@H](CCCCN)C(=O)O (Pyrazinecarbonyl-LI[Cha][Abu(ψCOCO)]K-OH)	7.7 µM
CC[C@H](NC(=O)[C@H](CC1CCCCC1)NC(=O)[C@@H](NC(=O)[C@H](CC(C)C)NC(=O)c1cnccn1)[C@@H](C)CC)C(=O)C(=O)N[C@H](C(=O)O)C(C)C (Pyrazinecarbonyl-LI[Cha][Abu(ψCOCO)]V-OH)	3.6 µM
CC[C@H](NC(=O)[C@H](CC1CCCCC1)NC(=O)[C@@H](NC(=O)[C@H](CC(C)C)NC(=O)c1cnccn1)[C@@H](C)CC)C(=O)C(=O)NC(C)(C)C(=O)O (Pyrazinecarbonyl-LI[Cha][Abu(ψCOCO)][Aib]-OH)	> 60 µM
CC[C@H](NC(=O)[C@H](CC1CCCCC1)NC(=O)[C@@H](NC(=O)[C@H](CC(C)C)NC(=O)c1cnccn1)[C@@H](C)CC)C(=O)C(=O)N(C)CC(=O)O (Pyrazinecarbonyl-LI[Cha][Abu(ψCOCO)][Sar]-OH)	> 60 µM
CC[C@H](C)[C@H](NC(=O)[C@H](CC(C)C)NC(=O)c1cnccn1)C(=O)N[C@@H](CC1CCCCC1)C(=O)N[C@@H](CC(F)F)C(=O)C(=O)NCC(=O)O (Pyrazinecarbonyl-LI[Cha][X1]G-OH)	0.06 µM
CC[C@H](C)[C@H](NC(=O)[C@H](CC(C)C)NC(=O)c1cnccn1)C(=O)N[C@@H](CC1CCCCC1)C(=O)NC(C)(C)C(=O)C(=O)NCC(=O)O (Pyrazinecarbonyl-LI[Cha][X2]G-OH)	> 60 µM
CC[C@H](C)[C@H](NC(=O)[C@H](CC(C)C)NC(=O)c1cnccn1)C(=O)N[C@@H](CC1CCCCC1)C(=O)NC1(C(=O)C(=O)NCC(=O)O)CC1 (Pyrazinecarbonyl-LI[Cha][X3]G-OH)	> 60 µM
